Converted amounts (≈) assume the structure as drawn.

In series [1] the test system is Colo205 (human colon cancer cells). As to the kind of experiment: MTT in vitro anti-tumor activity test, Colo205. It counts as cell-based. As to conditions: for IC50: Homo sapiens, COLO 205, 72 h, read-out: Colo205 IC50; for Colo205 100 μg/mL IC %: 72 h.
The subject of series [2] is A549 (human lung cancer cells). As to the kind of experiment: MTT in vitro anti-tumor activity test, A549. Conditions: for IC50: Homo sapiens, A549, 72 h, read-out: A549 IC50; for A549 100 μg/mL IC %: 72 h. It is filed as cell-based.
In series [3] the test system is MDA-MB-435 (human breast cancer cells). The series can be described thus: MTT in vitro anti-tumor activity test, MDA-MB-435. It is filed as cell-based. As to conditions: for IC50: Homo sapiens, MDA-MB-435, 72 h, read-out: MDA-MB-435 IC50; for MDA-MB-435 100 μg/mL IC %: 72 h.
The subject of series [4] is HepG2 (human hepatoma cells). As to the kind of experiment: MTT in vitro anti-tumor activity test, HepG2. It is filed as cell-based. Conditions: for IC50: Homo sapiens, HepG2, 72 h, read-out: HepG2 IC50; for HepG2 100 μg/mL IC %: 72 h.
Series [5] concerns human lung cancer cell line A549. As to the kind of experiment: Anti-tumor activity test in vivo, nude mouse model of A549. Conditions: nude mouse model of A549, dose of 1-200 mg/kg weight. An excerpt: The activities of some compounds in vivo in the nude mouse model of human lung cancer cell line A549 were detected by using literature methods (WEI Hong. Medical Experiments Zoology. 2nd edition. Chengdu: Sichuan Science and Technology Press, 2001: 595-596).

With `COc1ccc2c(c1)C(=O)c1c-2c(=O)n(CCN(C)C)c2ccccc12` [Compound 31, 5-(2-dimethylaminoethyl)-9-methoxy-5H-indeno[1,2-c]quinoline-6,11-dione], the melting point (in general, the temperature, or range, at which the solid turns liquid) fell in the range of 198 to 200 °C. For the same compound, the IC50 (commonly the concentration needed to halve the response being measured) in series [1] worked out at 1.2 µg/mL (≈ 3.44 µM). In addition, in series [1] (inhibition at 100 μg/mL, MTT assay, Colo205 cells), the “Colo205 100 μg/mL IC %” value was 88.35%. For the same compound, the IC50 in series [2] amounted to 1.72 µg/mL (≈ 4.94 µM). The “A549 100 μg/mL IC %” value in series [2] (inhibition at 100 μg/mL, MTT assay, A549 cells) is reported as 93.62%. The IC50 in series [3] was found to be 1.83 µg/mL (≈ 5.25 µM). Besides, in series [3] (inhibition at 100 μg/mL, MTT assay, MDA-MB-435 cells), the “MDA-MB-435 100 μg/mL IC %” value is 86.09%. In addition, the IC50 in series [4] stood at 0.746 µg/mL (≈ 2.14 µM). In addition, the “HepG2 100 μg/mL IC %” value in series [4] (inhibition at 100 μg/mL, MTT assay, HepG2 cells) worked out at 90.60%.
`COc1ccc2c(c1)C(=O)c1c-2c(OCCN(C)C)nc2ccccc12` [Compound 1] returned a melting point of 116 to 118 °C. Besides, in series [1] (Colo205, 100 μg/mL, MTT), the “Colo205 100 μg/mL IC %” value is 100%. In series [1], the IC50 was found to be 0.621 µg/mL (≈ 1.78 µM). Besides, the “A549 100 μg/mL IC %” value in series [2] (A549, 100 μg/mL, MTT) came to 100%. Besides, in series [2], the IC50 was determined as 0.983 µg/mL (≈ 2.82 µM). The IC50 in series [3] worked out at 1 µg/mL (≈ 2.87 µM). Moreover, in series [3] (MDA-MB-435, 100 μg/mL, MTT), the “MDA-MB-435 100 μg/mL IC %” value was found to be 95.81%. Also, in series [5], the “anti-tumor activity in vivo” value is listed as “good anti-tumor activity in vivo”. In series [4] (HepG2, 100 μg/mL, MTT), the “HepG2 100 μg/mL IC %” value came to 99.40%. Also, the concentration for half-maximal inhibition (IC50) in series [4] was 0.721 µg/mL (≈ 2.07 µM).

For the origin of these results see patent publication US9181193B2, “Indenoquinolone compound, preparation method and use thereof” (Second Military Medical University, PLA, priority 2010, dated 2015).
